Literature values as cited in patent US5942536A, “N-[2-substituted-3-(2-aminoethyl)-1H-indol-5-YL]-Amides: new 5-HT1F agonists” (Eli Lilly and Company, priority 1998, dated 1999).

Tests used:
5-HT1F receptor = target: T1, 5-HT1F receptor (Homo sapiens, UniProt P30939); conditions: literature (Weinshank); reference for Emax
T1 sequence (P30939 1-366): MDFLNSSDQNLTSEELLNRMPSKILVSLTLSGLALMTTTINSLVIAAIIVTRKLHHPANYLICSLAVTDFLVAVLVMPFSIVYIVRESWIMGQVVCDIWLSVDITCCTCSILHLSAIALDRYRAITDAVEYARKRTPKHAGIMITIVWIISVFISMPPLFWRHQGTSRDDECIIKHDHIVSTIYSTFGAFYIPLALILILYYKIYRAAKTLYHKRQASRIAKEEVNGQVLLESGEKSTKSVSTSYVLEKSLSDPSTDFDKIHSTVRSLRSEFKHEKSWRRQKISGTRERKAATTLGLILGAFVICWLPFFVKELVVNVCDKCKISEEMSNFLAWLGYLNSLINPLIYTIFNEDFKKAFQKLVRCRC

[1] = system: cephalic vascular smooth muscle; conditions: literature (Humphrey, et al.)
[2] = literature (Humphrey, et al.)
neurogenic inflammation = conditions: literature (Moskowitz)

SMILES | effect on forskolin stimulated cAMP production (5-HT1F receptor) | contraction of cephalic vascular smooth muscle [1] | effective in the treatment of migraine [2] | block of neurogenic inflammation (neurogenic inflammation)
NCCc1c[nH]c2ccc(O)cc12 [serotonin] | maximal effect |  |  | 
CNS(=O)(=O)Cc1ccc2[nH]cc(CCN(C)C)c2c1 [sumatriptan] |  | contract cephalic vascular smooth muscle | effective in the treatment of migraine | blocked
